# Read-outs that look alike come from different tables or passages of the source.
# Key:
# [1] = test system: young plant organs (leaves and fruits); settings: applied, preferably sprayed, together with the thinning formulations
# apple varieties = test: Plant tolerance by visual scoring in thinning experiments; type: in vivo; settings: application rates 500 mg/l and 700 mg/l
# Procedure: According to visual scoring, formulations comprising […] metamitron show no or only minimal damage when used in thinning experiments on a wide range of apple varieties, while formulations comprising 700 mg/l metamitron cause minimal to clearly discernable damage under identical conditions.
# [2] = test system: "Golden Delicious" apple variety; settings: 7 days post-flowering, standard 98 g, cited from earlier work
# plants = settings: use for fruit thinning, J. Amer. Soc. Hort. Sci. 115(1): 14-19 (1990); cited from earlier work
compound,measurement,setting,value
O=C[O-].O=C[O-].[Ca+2] [calcium formate],plant intolerance symptoms,[1],plant intolerance symptoms were not observed
Cc1nnc(-c2ccccc2)c(=O)n1N [metamitron],plant damage at the application rates of Guzewski,apple varieties,plant damage (foliar necroses) can be observed
same,fruit weight,[2]; application rate 500 mg/l,150 g
same,fruit weight,[2]; application rate 700 mg/l,180 g
CSc1nnc(C(C)(C)C)c(=O)n1N [metribuzin],plant tolerance,plants,unsatisfactory

# Source: US20140373438A1, “Method for Thinning Fruit” (BAYER CROPSCIENCE AG, priority 2001, published 2014)
